Several values for one entry are separate records, joined by “and”; a condition that tells them apart may be missing. Equal values may be shown once.
Experiments:
[1] = system: liver MPS NASH model (PHH, KC and HSC co-cultures, high fat); assay: Fibrosis gene expression (Human Fibrosis RT2 Profiler PCR Arrays) in liver MPS NASH model dosed with OCA or ELF; type: cell-based; conditions: 10 days, individual cultures
Experimental: (§1) Fig. 3 Obeticholic acid and Elafibranor both modulate inflammatory and fibrosis phenotype in liver MPS NASH model and phenotype can additionally be reversed with dietary changes. PHH, KC and HSC co-cultures were cultured in the MPS platform under high fat conditions and dosed with varying concentrations of Obeticholic acid (OCA) and Elafibranor (ELF) QD or vehicle control (control) for 10 days, following an initial 4-day pre-culture phase. a The secreted cytokine profile from liver microtissues was compared by Luminex to determine the effects of each compound on the inflammatory profile of the liver with samples analysed at day 8 and 14 of the culture. Data were normalised by Z-transformation to allow comparison of all analytes and presented as a heatmap. b The expression of fibrosis-associated genes was analysed in total RNA from control, OCA and ELF treated liver microtissues (highest concentration for each compound) using Human Fibrosis RT2 Profiler PCR Arrays. Gene expression changes are expressed as a fold change over control. c Liver microtissues were stained for collagen-type I, α-SMA, nuclei (DAPI - blue), phalloidin (green) and imaged by confocal microscopy. Representative images are shown and scale bars 200 µm. d Staining of microtissue was quantified by measuring total fluorescence intensity throughout individual microtissues, each data point represents an average of all the microtissues imaged within an MPS scaffold (min 8, max 20 microtissues). e PHH, KC and HSC co-cultures were cultured in the MPS platform under high fat or lean conditions for 30 days. Cultures either remained in the same type of media throughout or were switched at day 15 from fat media to lean media (Fat -> Lean). Cell culture medium samples were analysed for the presence of IL-6, f MCP-1, g TIMP-1, which were measured by ELISA. h Microtissues were stained with Oil-Red O to determine fat loading during culture period, total stain was quantified by absorbance at 510 nm. All datapoints shown, either as box-whisker plots highlighting mean and min-max or with error bars highlighting means ± SD. All data from a minimum of three independent cultures; statistical comparisons made to control samples unless other comparison shown.
Total RNA was extracted from liver microtissue-containing scaffolds using TRIzol® Reagent (Ambion, USA) and a chloroform phase separation. RNA was precipitated from aqueous phase samples using 100% isopropanol and RNA pellets were resuspended in dH2O. Samples were analysed by both QPCR and RNAseq. For QPCR, reverse transcription and PCR were performed using RT2 First Strand Kit and Human Fibrosis RT² Profiler™ PCR Arrays (PAHS-120Z) (Qiagen, UK), with samples analysed on a Quantstudio 6 Real-Time PCR System (Applied Biosystems, UK). Ct values from samples were compared and normalised to house-keeping gene expression. The fold-change in each transcript represented on the array plate was determined using RT2 Profiler™ PCR Array Data Analysis (v. 3.5) Web Portal (Qiagen, UK).
Liver microtissues were cultured for 4 days in HEP-FAT medium, before dosing with obeticholic acid or elafibranor. Both compounds were dissolved in DMSO, diluted in cell culture medium (final DMSO concentration ≤1%) and added to microtissues during a full medium change every two days and in addition on the intervening days compounds were spiked into the media to increase drug concentration back to desired concentrations. Cultures were maintained in the presence of the compound, for a total of 10 days in the presence or absence of TGFβ.

[2] = system: liver MPS NASH model (PHH, KC and HSC co-cultures, high fat); assay: Quantitative confocal imaging of collagen type 1 and alpha SMA in liver MPS NASH model dosed with OCA or ELF; type: cell-based, human; conditions: for Collagen type 1 fluroscent marker intensity: per MPS scaffold; for reduction of collagen-1 deposition / reduction of α-SMA expression: fat only NASH model, 10 days; for reduction of α-SMA expression: concentration-dependent
Experimental: as §1
To visualise fibrosis proteins in the liver microtissues, scaffolds were fixed for 15 min in 4% paraformaldehyde following culture in the MPS platform. They were permeabilized with 0.1% Triton-X and blocked with 2% BSA before staining overnight at 4 °C with antibodies against alpha SMA (Abcam, UK - ab7817) and collagen 1 (Rockland, USA—600 401 103 0.5). Scaffolds were then stained with fluorescently conjugated secondary antibodies (Alexa-Fluor 555 goat anti-rabbit #A21429; Alexa-Fluor 647 donkey anti-rabbit #A31573; Alexa-Fluor 555 goat anti-mouse #A21424; Alexa-Fluor 647 goat anti-mouse #A21235 (Thermofisher, UK) along with Phalloidin 488 (Thermofisher, UK) and Hoechst 33342 (Invitrogen) for 1.5 h at room temperature. Scaffolds were washed three times with PBS and mounted onto glass microscope slides with anti-fade mounting medium. Confocal fluorescent images of the stained scaffolds were captured using a Cell Voyager 7000 (CV700, Yokogawa Inc.) automated confocal microscope. Image acquisition was controlled using the SearchFirst functionality of the Wako Software suite (Fujifilm Wako Automation). A workflow was designed to automatically locate and acquire images of each scaffold in a consistent and unbiased manner (Supp. Fig. 1). The workflow consisted of a first round of acquisition where the entire slide is imaged at low (4×) magnification capturing the Hoechst channel only. Images were automatically stitched together using a MATLAB script and eight regions of interest (ROI) were identified on each scaffold (same array of ROI per scaffold). XY coordinates were fed back to the microscope which subsequently imaged each ROI with full Z stacks obtained at ×10 magnification, 120 µm stack with a 5 µm slice interval. […]

CC[C@H]1[C@@H](O)[C@@H]2[C@H](CC[C@]3(C)[C@@H]([C@H](C)CCC(=O)O)CC[C@@H]23)[C@@]2(C)CC[C@@H](O)C[C@@H]12 [Obeticholic acid]
CCL2 relative gene expression compared to GAPDH housekeeping gene ([1]; 12.5 uM OCA, listed as OCA): 5.71e-9 and 9.72e-9 and 5e-9 | CCL3 relative gene expression compared to GAPDH housekeeping gene ([1]; 12.5 uM OCA, listed as OCA): 1.11e-9 and 5.96e-10 and 3.11e-10 | CCL11 relative gene expression compared to GAPDH housekeeping gene ([1]; 12.5 uM OCA, listed as OCA): 3.39e-10 and 4.66e-10 and 1.94e-10 | CEBPB relative gene expression compared to GAPDH housekeeping gene ([1]; 12.5 uM OCA, listed as OCA): 3e-8 and 1.33e-8 and 1.62e-8 | CXCR4 relative gene expression compared to GAPDH housekeeping gene ([1]; 12.5 uM OCA, listed as OCA): 2.04e-9 and 8.2e-10 and 6.3e-10 | DCN relative gene expression compared to GAPDH housekeeping gene ([1]; 12.5 uM OCA, listed as OCA): 3.44e-7 and 1.39e-7 and 1.03e-7 | HGF relative gene expression compared to GAPDH housekeeping gene ([1]; 12.5 uM OCA, listed as OCA): 1.68e-9 and 5.3e-10 and 3.89e-10 | MMP1 relative gene expression compared to GAPDH housekeeping gene ([1]; 12.5 uM OCA, listed as OCA): 9.31e-10 and 1.58e-9 and 2.05e-9 | MMP9 relative gene expression compared to GAPDH housekeeping gene ([1]; 12.5 uM OCA, listed as OCA): 1.47e-8 and 5.79e-9 and 3e-9 | Collagen type 1 fluroscent marker intensity ([2]; OCA 0.25 uM QD 10 days, listed as OCA): 2993.61 and 2644.36 and 2590.02 and 1579.53 | Collagen type 1 fluroscent marker intensity ([2]; OCA 5 uM QD 10 days, listed as OCA): 1471.67 and 1379.09 and 1471.56 and 1817.03 and 1176.35 and 1231.08 | reduction of collagen-1 deposition [2]: up to 35% | reduction of α-SMA expression [2]: up to 50%

CSc1ccc(C(=O)/C=C/c2cc(C)c(OC(C)(C)C(=O)O)c(C)c2)cc1 [Elafibranor]
CCL2 relative gene expression compared to GAPDH housekeeping gene ([1]; 65.0 uM ELF, listed as ELF): 3.92e-9 and 2.6e-9 and 6.31e-9 | CCL3 relative gene expression compared to GAPDH housekeeping gene ([1]; 65.0 uM ELF, listed as ELF): 3.39e-10 and 1.55e-10 and 3.45e-10 | CCL11 relative gene expression compared to GAPDH housekeeping gene ([1]; 65.0 uM ELF, listed as ELF): 4.99e-10 and 6.3e-10 and 6.52e-10 | CEBPB relative gene expression compared to GAPDH housekeeping gene ([1]; 65.0 uM ELF, listed as ELF): 1.2e-8 and 1.1e-8 and 2.65e-8 | CXCR4 relative gene expression compared to GAPDH housekeeping gene ([1]; 65.0 uM ELF, listed as ELF): 1.13e-9 and 7.47e-10 and 1.7e-9 | DCN relative gene expression compared to GAPDH housekeeping gene ([1]; 65.0 uM ELF, listed as ELF): 2.4e-7 and 1.65e-7 and 3.13e-7 | HGF relative gene expression compared to GAPDH housekeeping gene ([1]; 65.0 uM ELF, listed as ELF): 6.26e-10 and 2.45e-10 and 6.68e-10 | MMP1 relative gene expression compared to GAPDH housekeeping gene ([1]; 65.0 uM ELF, listed as ELF): 2.95e-9 and 8.23e-10 and 3.25e-9 | MMP9 relative gene expression compared to GAPDH housekeeping gene ([1]; 65.0 uM ELF, listed as ELF): 1.04e-8 and 2.47e-9 and 9.28e-9 | Collagen type 1 fluroscent marker intensity ([2]; ELF 13 uM QD 10 days, listed as ELF): 1659.63 and 1182.93 and 1579.82 and 1137.61 and 1507.1 | reduction of collagen-1 deposition [2]: up to 35% | reduction of α-SMA expression [2]: up to 50%

From paper PMC8443589, “Modelling human liver fibrosis in the context of non-alcoholic steatohepatitis using a microphysiological system” (Communications Biology, 2021)
